Experimental findings from PubChem BioAssay (NCI) are described below.

Test systems include MCF7 breast; A498 renal; OVCAR-8 ovarian; SNB-19 CNS; HOP-92 NSCLC; HCT-116 colon; NCI-H23 lung; DU-145 prostate; UACC-62 melanoma; KM12 colon; MALME-3M melanoma.
Holding throughout (assay): NCI tumour cell line growth inhibition, 48 h

Several values for one entry are separate records, joined by “and”; a condition that tells them apart may be missing. Equal values may be shown once.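 Dose response: 5 concentrations. Exposure: 48 h. Format: 96-well plates. Endpoint: linear interpolation; highest concentration if not reached. GI50: concentration for 50% inhibition of growth. Definition used: TGI = concentration required for complete inhibition of growth.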

On to `C/C(=C/CC[C@]1(CO)CC[C@]2(C)[C@H](CC[C@@H]3[C@@]4(C)CC[C@H](OC5OC(CO)C(O)C(O)C5OC5OC(CO)C(O)C(O)C5O)C(C)(C)[C@@H]4CC[C@]32C)[C@H]1O)CO` (some centres not stated), for which the TGI in the assay with MCF7 breast, in the assay with A498 renal, in the assay with OVCAR-8 ovarian, with SNB-19 CNS, with HOP-92 NSCLC and in the assay with HCT-116 colon was more than 100 µM throughout. Besides, the TGI in the assay with NCI-H23 lung, in the assay with DU-145 prostate, in the assay with UACC-62 melanoma, in the assay on KM12 colon and in the assay with MALME-3M melanoma was more than 100 µM throughout.
As to `CC1(C)COC2=C(C1)C(=O)c1ccccc1C2=O`, the TGI was 2.99 µM with MCF7 breast; 3.56 µM in the assay on A498 renal; 1.53 µM in the assay on OVCAR-8 ovarian; 3.82 µM in the assay with SNB-19 CNS; 3.85 µM in the assay with HOP-92 NSCLC; 1.7 µM in the assay with HCT-116 colon. Besides, the TGI in the assay with NCI-H23 lung was determined as 3.46 µM; with DU-145 prostate, 3.07 µM; with UACC-62 melanoma, 2.53 µM; in the assay on KM12 colon, 3.23 µM; in the assay on MALME-3M melanoma, 3.29 µM.
On to `O=C(SCc1cccc2ccccc12)c1ccc(Cl)cc1`, for which the TGI in the assay on MCF7 breast, with A498 renal, in the assay on OVCAR-8 ovarian, with SNB-19 CNS, with HOP-92 NSCLC and in the assay with HCT-116 colon was more than 100 µM in each case. For the same compound, the TGI in the assay with NCI-H23 lung, in the assay on DU-145 prostate, in the assay with UACC-62 melanoma, with KM12 colon and in the assay on MALME-3M melanoma was more than 100 µM each time.
`Nc1nc(Cl)c(Cl)c(NCC2(O)CCC2)n1`: the TGI in the assay with MCF7 breast is more than 100 µM; in the assay with A498 renal, 97 µM; in the assay with OVCAR-8 ovarian, more than 100 µM; with SNB-19 CNS it was more than 100 µM; in the assay with HOP-92 NSCLC, more than 100 µM; with HCT-116 colon, more than 100 µM. For the same compound, the TGI in the assay on NCI-H23 lung, with DU-145 prostate, in the assay on UACC-62 melanoma, with KM12 colon and in the assay with MALME-3M melanoma was more than 100 µM in each case.
With `C/C(=N\O)c1cccc[n+]1Cc1ccccc1`, the TGI with MCF7 breast, with A498 renal, in the assay with OVCAR-8 ovarian, in the assay with SNB-19 CNS, in the assay with HOP-92 NSCLC and with HCT-116 colon was more than 100 µM in each case. The TGI in the assay with NCI-H23 lung, with DU-145 prostate, in the assay on UACC-62 melanoma, in the assay with KM12 colon and in the assay on MALME-3M melanoma was more than 100 µM throughout.
For `COc1ccccc1C1(c2c(OC)c(=O)c2=O)SCCCS1`, the TGI in the assay on MCF7 breast, in the assay on A498 renal, with OVCAR-8 ovarian, with SNB-19 CNS, with HOP-92 NSCLC and in the assay with HCT-116 colon was more than 100 µM each time. The TGI with NCI-H23 lung, in the assay with DU-145 prostate, in the assay with UACC-62 melanoma, with KM12 colon and in the assay with MALME-3M melanoma was more than 100 µM in each case.
Take `CC1=CP(=O)(c2c(C(C)C)cc(C(C)C)cc2C(C)C)CCC1Cl` (configuration not stated): the TGI in the assay with MCF7 breast was found to be 35.5 µM; with A498 renal, 30.4 µM; in the assay on OVCAR-8 ovarian, 52.9 µM; in the assay on SNB-19 CNS, 30.3 µM; in the assay on HOP-92 NSCLC, 31 µM; in the assay with HCT-116 colon, 38.4 µM. For the same compound, the TGI was 39.4 µM in the assay with NCI-H23 lung; 37.1 µM in the assay with DU-145 prostate; 26.1 µM in the assay with UACC-62 melanoma; 40.2 µM in the assay with KM12 colon; 30.4 µM in the assay on MALME-3M melanoma.
As for `O=C(NO)NCCCl`, the TGI with MCF7 breast, in the assay on A498 renal, with OVCAR-8 ovarian, in the assay with SNB-19 CNS, with HOP-92 NSCLC and in the assay on HCT-116 colon was more than 100 µM in each case. Moreover, the TGI with NCI-H23 lung, with DU-145 prostate, in the assay with UACC-62 melanoma, in the assay with KM12 colon and in the assay with MALME-3M melanoma was more than 100 µM in each case.
`COc1cc(OC)c2c(c1)OC(c1cccnc1)C(c1ccccc1)C2=O` (configuration not stated): the TGI in the assay on MCF7 breast, with A498 renal, with OVCAR-8 ovarian, in the assay on SNB-19 CNS, with HOP-92 NSCLC and in the assay with HCT-116 colon was more than 100 µM in each case. In addition, the TGI in the assay on NCI-H23 lung, in the assay on DU-145 prostate, in the assay on UACC-62 melanoma, with KM12 colon and in the assay with MALME-3M melanoma was more than 100 µM throughout.
For `COC(=O)C1OC(O[C@H]2CC[C@]3(C)[C@H]4CC=C5[C@@H]6CC(C)(C)CC[C@]6(C(=O)OC6OCC(O)C(O)C6OC6OC(C)C(OC7OCC(O)C(O)C7O)C(OC7OCC(O)(CO)C7O)C6O)[C@H](O)C[C@@]5(C)[C@]4(C)CC[C@H]3C2(C)C)C(O)C(O)C1O` (some centres not stated), the TGI in the assay with MCF7 breast came out at 3.43 µM; in the assay on A498 renal it was 3.3 µM; with OVCAR-8 ovarian it was 24.4 µM; in the assay on SNB-19 CNS, 19 µM; in the assay on HOP-92 NSCLC, 3.94 µM; with HCT-116 colon it was 13.5 µM. The TGI in the assay on NCI-H23 lung came to 3.56 µM; with DU-145 prostate, 20.9 µM; in the assay with UACC-62 melanoma it was 6.08 µM; in the assay on KM12 colon, 9.49 µM; with MALME-3M melanoma, 15.7 µM.
For `CN(C)c1ccc(/C=C/c2sc3ccccc3[n+]2C)cc1`, the GI50 with MCF7 breast was 3.94 µM and 1.46 µM; in the assay with OVCAR-8 ovarian, 0.0955 µM and 0.387 µM; with DU-145 prostate, 2.57 µM and 0.532 µM; in the assay on UACC-62 melanoma it was 3.87 µM and 1.48 µM; with KM12 colon it was 0.621 µM. Besides, the TGI was 17.6 µM and 7.41 µM with MCF7 breast; 26.2 µM and 32.7 µM in the assay on A498 renal; 1.17 µM and 6.8 µM with OVCAR-8 ovarian; 14 µM and > 100 µM with SNB-19 CNS; 5.34 µM and 8.69 µM in the assay on HOP-92 NSCLC; 10.9 µM and > 100 µM with HCT-116 colon. Also, the TGI is 8.47 µM and 16.7 µM in the assay with NCI-H23 lung; 13.2 µM and 11.2 µM in the assay on DU-145 prostate; 17 µM and 5.87 µM with UACC-62 melanoma; > 25.2 µM and 5.26 µM in the assay on KM12 colon; 12.1 µM and 6 µM in the assay on MALME-3M melanoma.
`Cc1cccc(CC(Cc2ccc(C)cc2C(=O)O)C(=O)O)c1` (configuration not stated): the TGI with MCF7 breast, in the assay with A498 renal, with OVCAR-8 ovarian, with SNB-19 CNS, in the assay on HOP-92 NSCLC and with HCT-116 colon was more than 100 µM each time. Further, the TGI was more than 100 µM in the assay with NCI-H23 lung; more than 100 µM in the assay with DU-145 prostate; 96.5 µM in the assay with UACC-62 melanoma; more than 100 µM with KM12 colon; more than 100 µM with MALME-3M melanoma.
